In patent publication US20240059703A1 (AMGEN INC., priority 2021, published 2024):
Read-outs that look alike come from different tables or passages of the source.

Assays:
[1] = test system: A549 (human lung carcinoma) cells; test: Cell Viability Assay (CellTiter-Glo), A549; type: cell-based
Procedure, shortened: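 RPMI 1640/10% FBS; seed 1.67E+04 cells/mL, o/n 37° C., 5% CO2; serial-dilution cmpd 72 h; CellTiter-Glo luminescence vs DMSO; 4-parameter logistic fit → IC50.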

KRAS G12C = KRAS G12C (Homo sapiens (Human), UniProt P01116, C118A/G12C); test: 2 h coupled exchange assay; type: biochemical
Protocol: The term “2 h coupled exchange assay” or “20 h coupled exchange assay” as used herein refers to the assay described in the Section entitled “BIOLOGICAL EVALUATION.”

[2] = test system: MIA PaCa-2 (human pancreatic carcinoma) cells; test: Cell Viability Assay (CellTiter-Glo), MIA PaCa-2; type: cell-based
Protocol: Serially-diluted compound or DMSO was added to the cells, and plates were incubated at 37° C., 5% CO2 for 72 h. Cell viability was measured using a CellTiter-Glo® Luminescent Cell Viability Assay kit (Promega) according to the manufacturer's protocol. The luminescence signal of treated samples was normalized to DMSO control, and data were analyzed using a 4-parameter logistic model to calculate IC50 values.

[3] = Avg 2 h Coupled exchange IC50, 2 h compound pre-incubation
[4] = Avg 2 h Coupled exchange IC50, 2 h compound pre-incubation, SOS-mediated nucleotide exchange

Sequence of KRAS G12C (P01116 other isoform, or with tags, fused parts or gaps G12C/C118A): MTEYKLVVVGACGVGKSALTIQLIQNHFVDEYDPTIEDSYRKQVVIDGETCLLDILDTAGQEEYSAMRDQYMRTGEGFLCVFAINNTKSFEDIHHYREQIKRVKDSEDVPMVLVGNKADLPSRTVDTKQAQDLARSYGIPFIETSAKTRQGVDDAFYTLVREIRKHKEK

Compound	IC50 ([1]; Homo sapiens, A549, 72 h) [nM]	IC50 (KRAS G12C; [3]) [nM]	IC50 ([2]; Homo sapiens, MIA PaCa-2, 72 h) [nM]	IC50 (KRAS G12C; [4]) [nM]	IC50 ([1]; 72 h) [nM]	IC50 (KRAS G12C; read-out: Avg 2 h Coupled exchange IC50, 2 h compound pre-incubation) [nM]	IC50 ([2]; 72 h) [nM]
C=CC(=O)N1CC2(CCN(c3nc4c(c(-c5c(O)cccc5Cl)c3C#N)COC(c3scnc3C)C4)C2)C1 [Example 23-35, (7R)-4-(2-chloro-6-hydroxyphenyl)-7-(4-methyl-1,3-thiazol-5-yl)-2-(2-(2-propenoyl)-2,6-diazaspiro[3.4]octan-6-yl)-7,8-dihydro-5H-pyrano[4,3-b]pyridine-3-carbonitrile (7S)-4-(2-chloro-6-hydroxyphenyl)-7-(4-methyl-1,3-thiazol-5-yl)-2-(2-(2-propenoyl)-2,6-diazaspiro[3.4]octan-6-yl)-7,8-dihydro-5H-pyrano[4,3-b]pyridine-3-carbonitrile]	21000	840	2400	–	–	–	–
C=CC(=O)N1CC2(CCN(c3nc4c(c(-c5ccc(F)cc5F)c3C#N)CCN(c3scnc3C)C4)[C@H]2C)C1 [Example 21-16, 4-(2,4-difluorophenyl)-2-((5S)-5-methyl-2-(2-propenoyl)-2,6-diazaspiro[3.4]octan-6-yl)-7-(4-methyl-1,3-thiazol-5-yl)-5,6,7,8-tetrahydro-1,7-naphthyridine-3-carbonitrile]	5110	108	931	–	–	–	–
C=CC(=O)N1CC2(CCN(c3nc4c(c(-c5c(C)c(Cl)cc6cnn(C)c56)c3C)COC(C)(C)C4)C2)C1 [Example 14-87, 1-(6-(4-(5-chloro-1,6-dimethyl-1H-indazol-7-yl)-3,7,7-trimethyl-7,8-dihydro-5H-pyrano[4,3-b]pyridin-2-yl)-2,6-diazaspiro[3.4]octan-2-yl)-2-propen-1-one]	> 5000	39	68	–	–	–	–
C=CC(=O)N1CC2(CCN(c3nc(-c4c(C)ccc5[nH]ncc45)c4c(n3)C(C)CCC4)C2)C1 (stereo not drawn) [Example 1-15, 1-(6-((8)-8-methyl-4-(5-methyl-1H-indazol-4-yl)-5,6,7,8-tetrahydro-2-quinazolinyl)-2,6-diazaspiro[3.4]octan-2-yl)-2-propen-1-one]	> 5000	–	> 5000	9060	–	–	–
C=CC(=O)N1CC2(CCN(c3nc4c(c(-c5c(C)ccc6cnn(C)c56)c3C)CCC(C)(C)C4)C2)C1 [Example 2-19, 1-(6-(4-(1,6-dimethyl-1H-indazol-7-yl)-3,7,7-trimethyl-5,6,7,8-tetrahydro-2-quinolinyl)-2,6-diazaspiro[3,4]octan-2-yl)-2-propen-1-one]	> 5000	–	392	104	–	–	–
C=CC(=O)N1CC2(CCN(c3nc4c(c(-c5cc(C(F)F)ccc5Cl)c3C#N)CCN(c3scnc3C)C4)C2)C1 [Example 23-61, 4-(2-chloro-5-(difluoromethyl)phenyl)-7-(4-methyl-1,3-thiazol-5-yl)-2-(2-(2-propenoyl)-2,6-diazaspiro[3.4]octan-6-yl)-5,6,7,8-tetrahydro-1,7-naphthyridine-3-carbonitrile]	12400	103	1910	–	–	–	–
C=CC(=O)N1CC2(CCN(c3nc4c(c(-c5c(C)ccc6[nH]ncc56)c3C#N)COC3(CCOC3)C4)C2)C1 [Example 13-51, (3R)-4′-(5-methyl-1H-indazol-4-yl)-2′-(2-(2-propenoyl)-2,6-diazaspiro[3.4]octan-6-yl)-4,5,5′,8′-tetrahydrospiro[furan-3,7′-pyrano[4,3-b]pyridine]-3′-carbonitrile|(3S)-4′-(5-methyl-1H-indazol-4-yl)-2′-(2-(2-propenoyl)-2,6-diazaspiro[3.4]octan-6-yl)-4,5,5′,8′-tetrahydrospiro[furan-3,7′-pyrano[4,3-b]pyridine]-3′-carbonitrile]	> 5000	–	287	95	–	–	–
C=CC(=O)N1CC2(CCN(c3nc4c(c(-c5cccc6cccc(Cl)c56)n3)CCCC4)C2)C1 [Example 1-9, 1-(6-(4-(8-chloro-1-naphthalenyl)-5,6,7,8-tetrahydro-2-quinazolinyl)-2,6-diazaspiro[3.4]octan-2-yl)-2-propen-1-one]	> 25000	–	18100	4580	–	–	–
C=CC(=O)N1CC2(CCN(c3nc4c(c(-c5ccccc5F)c3C#N)CCC3(c5scnc5C)C4C3(F)F)C2)C1 (stereo not drawn) [Example 23-37]	14600	179	3120	–	–	–	–
C=CC(=O)N1CC2(CCN(c3nc4c(c(-c5cccc(C)c5C)n3)CC[C@@H](c3nccs3)C4)C2)C1 (racemic) [Example 22-3, 1-(6-((7R)-4-(2,3-dimethylphenyl)-7-(1,3-thiazol-2-yl)-5,6,7,8-tetrahydro-2-quinazolinyl)-2,6-diazaspiro[3.4]octan-2-yl)-2-propen-1-one|1-(6-((7S)-4-(2,3-dimethylphenyl)-7-(1,3-thiazol-2-yl)-5,6,7,8-tetrahydro-2-quinazolinyl)-2,6-diazaspiro[3.4]octan-2-yl)-2-propen-1-one]	–	–	–	–	> 5000	281	3310
C=CC(=O)N1CC2(CCN(c3nc4c(c(-c5c(C)ccc6[nH]ncc56)c3C)COC(C)(C)C4)C2)C1 (single isomer, unassigned) [Example 14-33, (P)-1-(6-(3,7,7-trimethyl-4-(5-methyl-1H-indazol-4-yl)-7,8-dihydro-5H-pyrano[4,3-b]pyridin-2-yl)-2,6-diazaspiro[3.4]octan-2-yl)-2-propen-1-one]	> 5000	44	32	–	–	–	–
C=CC(=O)N1CC2(CCN(c3nc4c(c(-c5c(C)ccc6cn[nH]c56)n3)CCCC4)C2)C1 [Example 1-16, 1-(6-(4-(6-methyl-1H-indazol-7-yl)-5,6,7,8-tetrahydro-2-quinazolinyl)-2,6-diazaspiro[3.4]octan-2-yl)-2-propen-1-one]	> 25000	–	10300	6720	–	–	–
C=CC(=O)N1CC2(CCN(c3nc4c(c(-c5c(Cl)ccc6[nH]ncc56)c3C#N)CCC(C)(C)C4)C2)C1 [Example 13-144, 4-(5-chloro-1H-indazol-4-yl)-7,7-dimethyl-2-(2-(2-propenoyl)-2,6-diazaspiro[3.4]octan-6-yl)-5,6,7,8-tetrahydro-3-quinolinecarbonitrile]	3800	–	172	41	–	–	–
C=CC(=O)N1CC2(CCN(c3nc4cc(-c5scnc5CO)ccc4c(-c4ccccc4F)c3C#N)C2)C1 [Example 20-18, 4-(2-fluorophenyl)-7-(4-(hydroxymethyl)-1,3-thiazol-5-yl)-2-(2-(2-propenoyl)-2,6-diazaspiro[3.4]octan-6-yl)-3-quinolinecarbonitrile]	> 5000	95	651	–	–	–	–
C=CC(=O)N1CC2(CCN(c3nc4c(c(-c5c(O)cccc5Cl)c3C#N)CCC(c3scnc3C)=C4)C2)C1 [Example 23-34, 4-(2-chloro-6-hydroxyphenyl)-7-(4-methyl-1,3-thiazol-5-yl)-2-(2-(2-propenoyl)-2,6-diazaspiro[3.4]octan-6-yl)-5,6-dihydro-3-quinolinecarbonitrile]	> 5000	97	1090	–	–	–	–
C=CC(=O)N1CC2(CCN(c3cn4cc(-c5ccccc5)nc4c(-c4c(C)ccc5[nH]ncc45)c3C#N)C2)C1 [Example 1-38, 8-(5-methyl-1H-indazol-4-yl)-2-phenyl-6-(2-(2-propenoyl)-2,6-diazaspiro[3.4]octan-6-yl)imidazo[1,2-al]yridine-7-carbonitrile]	6250	–	294	103	–	–	–
C=CC(=O)N1CC2(CCN(c3cc4c(c(-c5c(C)ccc6[nH]ncc56)c3C#N)CCCC4)C2)C1 [Example 2-93, 1-(5-methyl-1H-indazol-4-yl)-3-(2-(2-propenoyl)-2,6-diazaspiro[3.4]octan-6-yl)-5,6,7,8-tetrahydro-2-naphthalenecarbonitrile]	2040	–	70	19	–	–	–
C=CC(=O)N1CC2(CCN(c3cc4c(c(-c5cc(O)cc6ccccc56)c3C#N)CCC(C)(C)C4)C2)C1 [Example 2-98, 3′-hydroxy-6,6-dimethyl-3-(2-(2-propenoyl)-2,6-diazaspiro[3,4]octan-6-yl)-5,6,7,8-tetrahydro[1,1′-binaphthalene]-2-carbonitrile]	> 5000	–	110	55	–	–	–
C=CC(=O)N1CC2(CCN(c3cc4c(c(-c5c(C)c(Cl)cc6cnn(C)c56)c3C#N)OCCC4)[C@H]2C)C1 [Example 2-107, 8-(5-chloro-1,6-dimethyl-1H-indazol-7-yl)-6-((5S)-5-methyl-2-(2-propenoyl)-2,6-diazaspiro[3.4]octan-6-yl)-3,4-dihydro-2H-chromene-7-carbonitrile]	> 5000	–	7	17	–	–	–
Cc1ccc2[nH]ncc2c1-c1c(C#N)c(N2CCC3(CN(C(=O)/C=C/CN(C)C)C3)C2)nc2c(F)cccc12 [Example 1-46, 2-(2-((2E)-4-(dimethylamino)-2-butenoyl)-2,6-diazaspiro[3.4]octan-6-yl)-8-fluoro-4-(5-methyl-1H-indazol-4-yl)-3-quinolinecarbonitrile]	6250	–	2020	1530	–	–	–
C=CC(=O)N1CC2(CCN(c3nc4cc(OC)ccc4c(-c4c(C)ccc5[nH]ncc45)c3C#N)C2)C1 [Example 1-45, 7-methoxy-4-(5-methyl-1H-indazol-4-yl)-2-(2-(2-propenoyl)-2,6-diazaspiro[3.4]octan-6-yl)-3-quinolinecarbonitrile]	> 5000	–	332	32	–	–	–
